This is an account of results in patent publication US6858396B2, “Positively charged non-natural amino acids, methods of making and using thereof in peptides” (Medical University of South Carolina, priority 1996, dated 2005).

Where two headings read alike, the source gives them in different places. Square brackets hold non-standard residues; d marks the D form. Ends that are not written are not given here. Peptide text beside a SMILES is read from it. hLys = NCCCCC[C@H](N)C(=O)O

In general, % Inhibition refers to the drop in the measured response relative to a control, in per cent. A lower % Inhibition goes with a weak effect.

The target of series [1] is T1, Thrombin (Homo sapiens, UniProt P00734). Briefly: Thrombin inhibition (Ki). It is filed as biochemical. From the text: (§1) Thrombin is a major control point of the blood coagulation cascade, and inhibitors are of interest to combat thrombotic diseases.
From the text in series [2]: as §1
Series [3] concerns the target T1, Thrombin. The series can be described thus: Competitive inhibition of thrombin in vitro, chromogenic substrate (D)-Phe-Pip-Arg-p-NA. The note with it: for % Inhibition: peptide 20 μM, 0.01 units human thrombin, pH 7.5, 25° C. It is filed as biochemical. Further details: 0.01 units of human thrombin (Sigma); purchased Sigma. The method, then:
A (D)-Phe-Pro-Arg-Ala analogue containing non-natural amino acid (7) (as the racemic mixture in the side chain) in place of Arg was synthesized and compared to (D)-Phe-Pro-Arg-Ala as a competitive inhibitor of thrombin in vitro. The molecule referred to as 7 is Formula I, R1=[…], R2=H, R3=H, R13=H and N=4. The stereochemistry at C2 is racemic (equal D- and L-forms present).
Peptides were incubated individually at 20 μM concentrations with 0.01 units of human thrombin (Sigma) and saturating concentrations of the chromogenic substrate (D)-Phe-Pip-Arg-p-NA at pH 7.5 and 25° C. in 0.1 M phosphate buffer containing 0.2 M NaCl and 0.5% PEG (5c). Initial rates were determined by monitoring formation of p-NA at 405 nm in the absence and presence of the indicated peptides to determine % inhibition. Standard errors were<5%.

The next series concerns the target T2, Trypsin (Bos taurus, UniProt P00760).
T2 construct: gene PRSS1
T2 sequence (P00760 24-246): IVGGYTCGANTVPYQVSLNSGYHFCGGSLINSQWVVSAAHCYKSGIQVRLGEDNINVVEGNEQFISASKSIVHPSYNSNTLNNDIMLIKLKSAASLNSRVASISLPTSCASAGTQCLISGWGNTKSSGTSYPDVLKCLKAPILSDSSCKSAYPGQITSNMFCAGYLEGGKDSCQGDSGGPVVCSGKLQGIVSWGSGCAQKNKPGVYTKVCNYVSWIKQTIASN
The series can be described thus: Trypsin inhibition (Ki). It is filed as biochemical. Particulars: at its limit of solubility in water.
From the text: as §1

The test system of another series is NT receptor. Briefly: Hypothermia in rats after I.V. or I.C. injection of NT(8-13) derivatives (brain uptake across the BBB). The series is classed as in vivo. From the text:
Peptides 36, 39, 42, and 45 are NT(8-13) with non-natural amino acids 32-35 (Scheme L), respectively, were substituted for the Arg^(8) residue.

For series [4] the following is noted: in vivo; cited from earlier work.

Regarding `N=C(N)NCCC[C@H](N)C(=O)O` [Arg, arginine, reference compound], on Thrombin [1] (as the N-α-DNS, —COO-Pip derivatives, read-out: Thrombin K12), the Ki was found to be 83 ± 24 nM. In series [2], the “RP-HPLC Retention Time” value worked out at 20.9 ± 0.02 min.

For “(D)-Phe-Pro-Arg-Ala ([dF]PRA) [reference compound]”, in the series with Thrombin [3], the “% Inhibition” value is on record as 65%.

On to `CCNC(=N)NCCC[C@H](N)C(=O)O` [Compound 31, N(γ)ethyl-Arg], for which the “inhibition of trypsin at limit of solubility in water” value against Trypsin is given as “does not inhibit trypsin”. The compound also gave a Ki on Thrombin [1] of 190 ± 66 nM. In addition, the “increase in thrombin/trypsin Ki selectivity ratio compared with arginine” value at Thrombin [1] (KI (Thrombin/Trypsin), 31 versus arginine) is reported as at least 60 fold. The “lipophilicity based on RP-HPLC” value in series [2] (compared with arginine) is reported as “more lipophilic”. Also, the “RP-HPLC Retention Time” value in series [2] (measure of lipophilicity, as the N-α-DNS, —COO-Pip derivatives) was determined as 23.1 ± 0.01 min.

On to `CC[C@H](C)[C@H](NC(=O)[C@H](Cc1ccc(O)cc1)NC(=O)[C@@H]1CCCN1C(=O)[C@H](CCCNC(=N)N)NC(=O)[C@@H](N)CCCCCN)C(=O)N[C@@H](CC(C)C)C(=O)O` [Peptide 36] (H-[hLys]RPYIL-OH), for which, in the series on NT receptor (brain uptake), the “improvement upon the previously evaluated peptides NT-1 and NT66L” value is at least 300 fold. The uptake into brain result with NT receptor (rats, single 0.2-mg I.V. dose versus I.C., estimated by potency ratios (FIG. 1B)) is listed as “roughly 28%”.

Turning to (D)-Phe-Pro-7-Ala, the “% Inhibition” value on Thrombin [3] was determined as 82%. At Thrombin [3] (relative to (D)-Phe-Pro-Arg-Ala), the “better competitive inhibitor than the parent peptide” value is about 25%.

Regarding “Arg^(8)-Arg^(9)-Pro^(10)-Tyr^(11)-Ile^(12)-Leu^(13)-COOH [NT(8-13), reference compound]”, in the series on NT receptor (rats, I.V., 1.0 mg doses (FIG. 1A)), the “activity (hypothermia) / uptake into brain after I.V. injection” value is “no activity”. In series [4], the “crossing of the blood brain barrier” value is recorded as “does not cross the blood brain barrier”.
